One assay addresses T1, PPARδ (Homo sapiens, UniProt Q03181).
T1 construct: a Gal4-Luciferase reporter is co-transfected
T1 sequence (Q03181 171-441 limits assumed): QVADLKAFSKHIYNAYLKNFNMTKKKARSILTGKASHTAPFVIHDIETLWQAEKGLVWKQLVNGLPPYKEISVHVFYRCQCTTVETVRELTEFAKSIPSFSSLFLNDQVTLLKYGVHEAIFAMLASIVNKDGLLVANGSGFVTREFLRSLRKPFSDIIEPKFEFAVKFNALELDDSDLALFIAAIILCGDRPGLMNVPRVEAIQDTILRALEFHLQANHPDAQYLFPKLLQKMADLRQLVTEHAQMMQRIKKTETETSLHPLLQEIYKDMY
Kind of assay: Transfection Assay for PPARδ Receptors (PPAR-Gal4 / Gal4-Luciferase reporter in HEK293 cells). It counts as cell-based. Particulars: fold induction; PPARδ standard: FI = 36.1. An outline of the steps:
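HEK293 cells co-transfected with PPAR-Gal4 receptor and Gal4-luciferase reporter, then moved into 5% charcoal-treated FBS medium. Compounds applied for 24 h at 37 °C, 5% CO2; luciferase activity read with Steady-Glo.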
Background: A reporter such as luciferase makes a cellular process visible.

Another assay deals with db/db mice. Briefly: Oral dosing in female db/db mice. In kind it is in vivo. Particulars: Mus musculus, 1.0 mpk, % change compared to vehicle. The protocol: The compound was prepared as suspensions in 0.5% hydroxypropylmethylcellulose (Dow Chemical, Midland, Mich.). The dosing volume was 10 mL/kg of body weight. […] Body weight was measured in the mornings on Day 1, prior to dosing, and on Day 12 before bleeding. 18-24 hours after the final dose for each group, the mice were anesthetized with CO2/O2 (70:30) and bled by retro-orbital sinus puncture into micro-tubes containing clog activator and then put in ice. The serum samples were prepared by centrifugation. Serum glucose and triglycerides were determined by using COBAS Mira Plus blood chemistry analyzer (Roche Diagnostics, N.J.). Serum insulin was measured by using ALPCO insulin ELISA kit.
Statistical analysis was performed using the program Prism (Graphpad, Monrovia, Calif.) and performing one-way ANOVA with a Dunnet's multiple comparison test.

The target of the next assay is T2, PPARγ (Homo sapiens, UniProt P37231).
T2 construct: Following the challenge of the preadipocytes, cells may be lysed with lysis buffer; endogenous in cells; host or cells: preadipocytes
T2 sequence (P37231 1-505): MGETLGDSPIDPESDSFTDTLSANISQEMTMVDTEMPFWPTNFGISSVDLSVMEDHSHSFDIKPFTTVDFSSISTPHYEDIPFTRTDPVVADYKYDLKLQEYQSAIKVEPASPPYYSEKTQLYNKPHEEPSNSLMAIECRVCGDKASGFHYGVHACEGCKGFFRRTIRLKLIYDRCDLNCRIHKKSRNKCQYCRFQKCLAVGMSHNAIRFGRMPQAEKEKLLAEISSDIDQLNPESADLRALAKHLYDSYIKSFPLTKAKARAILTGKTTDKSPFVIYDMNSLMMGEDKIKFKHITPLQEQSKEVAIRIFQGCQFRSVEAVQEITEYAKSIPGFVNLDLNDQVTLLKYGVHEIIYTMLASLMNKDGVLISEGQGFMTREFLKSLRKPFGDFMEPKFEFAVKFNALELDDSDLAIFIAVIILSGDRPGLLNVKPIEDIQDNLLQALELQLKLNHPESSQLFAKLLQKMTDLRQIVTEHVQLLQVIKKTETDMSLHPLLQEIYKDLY
Kind of assay: aP2 Assay for PPAR gamma Agonists (bDNA aP2 mRNA in preadipocytes). In kind it is cell-based. The settings on record: fold induction; PPARγ standard: FI = 70.3. An excerpt: aP2 Assay for PPAR gamma Agonists
The procedure is described in detail in Burris et al., Molecular Endocrinology, 1999, 13:410, which is hereby incorporated by reference in its entirety, and aP2 assay results of agonist intrinsic activity may be presented as fold increase over vehicle in induction of aP2 mRNA production.
Twenty-four hours after the initial seeding of the 96-well plates by hand (around 20,000/well), the differentiation assay may be initiated. Medium may be removed and replaced with […] of differentiation medium containing vehicle (DMSO) or test compounds. Cells may be returned to incubator for 24 hours culture. At the termination of the challenge, medium may be removed and 100 ul of lysis buffer may be added to initiate the bDNA aP2 mRNA assay. The branched DNA assay may be performed according to the manufacturer's protocol (Bayer Diagnostics; Emeryville, Calif.). Result may be expressed as the fold increase of aP2 mRNA production activated over vehicle controls. EC50's and Emax may be determined by non-linear regression with a sigmoidal fit curve.
Following the challenge of the preadipocytes, cells may be lysed with lysis buffer (Bayer Diagnostics) containing the aP2 oligonucleotides. After a 15 minute incubation at 53° C. or 30 minutes at 37° C. incubator, 70 ul of the lysis buffer from each well may be added to a corresponding capture well (preincubated with 70 ul of blocking buffer (Bayer Diagnostics)). The capture plate may be incubated overnight at 53° C. in a plate incubator (Bayer Diagnostics). After this incubation, the bDNA and labeled probes may be annealed as directed by the manufacturer. Following a 30-minute incubation with the luminescent alkaline phosphatase substrate, dioxitane, the luminescence may be quantitated in a Dynex MLX microtiter plate luminometer. Oligonucleotide probes designed to anneal to the aP2 mRNA and function in the bDNA mRNA detection system are designed with ProbeDesigner software (Bayer Diagnostics). This software package analyzes a target sequence of interest with a series of algorithms in order to determine which regions of the sequence can perform as locations for capture, label, or spacer probe annealing. The sequences of the oligonucleotides are as follows: […]

The target in a further assay is T3, PPARα (Rattus norvegicus, UniProt P37230).
T3 construct: H4IIE rat hepatoma cell line was obtained from ATCC; host or cells: H4IIE rat hepatoma cells
T3 sequence (P37230 1-468): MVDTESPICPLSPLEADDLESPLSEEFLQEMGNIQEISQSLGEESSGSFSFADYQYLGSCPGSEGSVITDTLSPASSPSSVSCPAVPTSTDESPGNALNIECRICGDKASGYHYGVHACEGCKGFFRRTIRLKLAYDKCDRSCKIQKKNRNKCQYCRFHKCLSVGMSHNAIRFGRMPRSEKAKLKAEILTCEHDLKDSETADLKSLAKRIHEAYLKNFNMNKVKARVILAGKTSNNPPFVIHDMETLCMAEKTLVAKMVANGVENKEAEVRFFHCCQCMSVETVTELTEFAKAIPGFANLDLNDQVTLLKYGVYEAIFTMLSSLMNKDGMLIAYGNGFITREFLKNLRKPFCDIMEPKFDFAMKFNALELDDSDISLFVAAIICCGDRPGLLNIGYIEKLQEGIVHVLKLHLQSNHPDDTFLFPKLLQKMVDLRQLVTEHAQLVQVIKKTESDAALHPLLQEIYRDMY
Briefly: HD bDNA Assay (HD gene induction). It counts as cell-based. Particulars: in section F; target not named there, values match the PPARα column; read-out: EC50. In short, it runs like this:
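H4IIE rat hepatoma cells (~100,000/well) treated 24 hours at 37° C in low-serum medium (5% charcoal/dextran-treated calf serum) with compounds. HD mRNA quantified by branched DNA luminescence assay; EC50's from sigmoidal non-linear regression.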

A short description of assay [1]: Comparison of (S) and (R) isomer activity (test not stated). The settings on record: chiral center on C-2 of the indane ring.
Where [2] appears, read: 120 h, 5 day oral dosing, read-out: Δ BW.
Where [3] appears, read: 120 h, 5 day oral dosing, read-out: Δ Plasma Glucose.
The mark [4] stands for this setting: 120 h, 5 day oral dosing, read-out: Δ Plasma Insulin.
Where [5] appears, read: 120 h, 5 day oral dosing, read-out: Δ Plasma TG.

Where two headings read alike, the source gives them in different places.

Turning to `CCN(C(=O)Nc1ccc(OC(F)(F)F)cc1)C1Cc2ccc(SC(C)(C)C(=O)O)cc2C1` (centres unmarked) [Example 2, 2-{2-[1-Ethyl-3-(4-trifluoromethoxyphenyl)ureido]indan-5-ylsulfanyl}-2-methylpropionic acid], on PPARδ, the “PPARδ FI” value stood at 4.2. Also, the change in vivo at 1 mg/kg in the assay with db/db mice (setting [2]) is -59%; with db/db mice (264 h, 11 day oral dosing, read-out: Δ Plasma Glucose) it was -60%; with db/db mice (264 h, 11 day oral dosing, read-out: Δ Plasma Insulin), -53%; in the assay on db/db mice (264 h, 11 day oral dosing, read-out: Δ Plasma TG) it was -56%. The “PPARγ FI” value on PPARγ is listed as 0.24. Besides, on PPARα, the EC50 (usually the concentration giving half of the maximal effect) came to 27 nM.

On to `CCN(C(=O)Nc1ccc(OC(F)(F)F)cc1)[C@H]1Cc2ccc(SC(C)(C)C(=O)O)cc2C1` [Example 3, (S)-2-{2-[1-Ethyl-3-(4-trifluoromethoxyphenyl)ureido]indan-5-ylsulfanyl}-2-methylpropionic acid], for which the “activity of the (S) isomer compared with the (R) isomer” value in assay [1] is on record as “the (S) isomer is more active than the (R) isomer”. For the same molecule, the change in vivo at 1 mg/kg was -66% in the assay on db/db mice (setting [3]); -69% in the assay with db/db mice (setting [4]); -66% with db/db mice (setting [5]); -136% in the assay with db/db mice (264 h, 11 day oral dosing, read-out: Δ BW).

In the case of `CCCCCN(C(=O)Nc1ccc(SC(F)(F)F)cc1)C1Cc2ccc(SC(C)(C)C(=O)O)cc2C1` (centres unmarked) [Example 5, 2-Methyl-2-{2-[1-pentyl-3-(4-trifluoromethylsulfanylphenyl)ureido]indan-5-ylsulfanyl}propionic acid], the “PPARδ FI” value on PPARδ came out at 2.5. Moreover, the change in vivo at 1 mg/kg is 56% in the assay on db/db mice (setting [2]), -31% with db/db mice (setting [3]), -43% with db/db mice (setting [4]) and -19% in the assay on db/db mice (setting [5]). For the same molecule, the “PPARγ FI” value on PPARγ came to 4.0. Also, the half-maximal effective concentration (EC50) on PPARα came out at 53 nM.

As to `CCN(C(=O)Nc1ccc(C(C)C)cc1)C1Cc2ccc(SC(C)(C)C(=O)O)cc2C1` (centres unmarked) [Example 6, 2-{2-[1-Ethyl-3-(4-isopropylphenyl)ureido]indan-5-ylsulfanyl}-2-methylpropionic acid], the “PPARδ FI” value on PPARδ stood at 3.6. For the same molecule, the change in vivo at 1 mg/kg in the assay on db/db mice (setting [2]) is -54%; in the assay on db/db mice (setting [3]), -49%; with db/db mice (setting [4]), -19%; in the assay on db/db mice (setting [5]), -50%. On PPARγ, the “PPARγ FI” value was found to be 1.9. For the same molecule, the EC50 at PPARα amounted to 56 nM.

With `CCN(C(=O)Nc1ccc(N(C)C)cc1)C1Cc2ccc(SC(C)(C)C(=O)O)cc2C1` (centres unmarked) [Example 7, 2-{2-[3-(4-Dimethylaminophenyl)-1-ethylureido]indan-5-ylsulfanyl}-2-methylpropionic acid], the “PPARδ FI” value on PPARδ is 0.8. In addition, the change in vivo at 1 mg/kg was -27% in the assay with db/db mice (setting [2]), -44% in the assay with db/db mice (setting [3]), -40% in the assay with db/db mice (setting [4]) and -63% with db/db mice (setting [5]). For the same molecule, at PPARγ, the “PPARγ FI” value worked out at 0. For the same molecule, on PPARα, the EC50 is 75 nM.

With `CCCCCN(C(=O)Nc1ccc(OC(F)(F)F)cc1)C1Cc2ccc(SC(C)(C)C(=O)O)cc2C1` (centres unmarked) [Example 8, 2-Methyl-2-{2-[1-pentyl-3-(4-trifluoromethoxyphenyl)ureido]indan-5-ylsulfanyl}-2-methylpropionic acid], the “PPARδ FI” value at PPARδ was 5.9. Besides, the change in vivo at 1 mg/kg with db/db mice (setting [2]) is -2%; in the assay on db/db mice (setting [3]), -28%; with db/db mice (setting [4]), -38%; with db/db mice (setting [5]), -27%. The “PPARγ FI” value on PPARγ was 1.9. The EC50 on PPARα was 73 nM.

Turning to `CCCCCN(C(=O)Nc1ccc(N(C)C)cc1)C1Cc2ccc(SC(C)(C)C(=O)O)cc2C1` (centres unmarked) [Example 9, 2-{2-[3-(4-Dimethylaminophenyl)-1-pentylureido]indan-5-ylsulfanyl}-2-methylpropionic acid], the “PPARδ FI” value on PPARδ is 1.0. Besides, the change in vivo at 1 mg/kg with db/db mice (setting [2]) was 0.05%; in the assay with db/db mice (setting [3]), -13%; in the assay on db/db mice (setting [4]), -40%; with db/db mice (setting [5]) it was -6%. Also, at PPARγ, the “PPARγ FI” value is 2.9. Moreover, the EC50 on PPARα was found to be 131 nM.
